Common to all, as to assay: whole-cell patch clamp in transfected CHOK1 cells
Format in all cases: cell-based

In experiment [1] the target is Nav1.4 (Homo sapiens, UniProt P35499, F1586A).
In experiment [2] the target is Nav1.4 (Homo sapiens, UniProt P35499, F432W/I1280W/I1583W/V787W).
For experiment [3], the target named is T1, Nav1.4 (Homo sapiens, UniProt P35499). The note with it: CHO-K1, read-out: % block at 350 μM.
Experiment [4] has as its target T1, Nav1.4. To be noted: CHO-K1, read-out: % block at 1.1 mM.
The mark [5] stands for this setting: CHO-K1, read-out: % block at 1.1 mM.

Sequence of Nav1.4 (Homo sapiens, UniProt P35499, F432W/I1280W/I1583W/V787W) (P35499 whole entry F432W/V787W/I1280W/I1583W): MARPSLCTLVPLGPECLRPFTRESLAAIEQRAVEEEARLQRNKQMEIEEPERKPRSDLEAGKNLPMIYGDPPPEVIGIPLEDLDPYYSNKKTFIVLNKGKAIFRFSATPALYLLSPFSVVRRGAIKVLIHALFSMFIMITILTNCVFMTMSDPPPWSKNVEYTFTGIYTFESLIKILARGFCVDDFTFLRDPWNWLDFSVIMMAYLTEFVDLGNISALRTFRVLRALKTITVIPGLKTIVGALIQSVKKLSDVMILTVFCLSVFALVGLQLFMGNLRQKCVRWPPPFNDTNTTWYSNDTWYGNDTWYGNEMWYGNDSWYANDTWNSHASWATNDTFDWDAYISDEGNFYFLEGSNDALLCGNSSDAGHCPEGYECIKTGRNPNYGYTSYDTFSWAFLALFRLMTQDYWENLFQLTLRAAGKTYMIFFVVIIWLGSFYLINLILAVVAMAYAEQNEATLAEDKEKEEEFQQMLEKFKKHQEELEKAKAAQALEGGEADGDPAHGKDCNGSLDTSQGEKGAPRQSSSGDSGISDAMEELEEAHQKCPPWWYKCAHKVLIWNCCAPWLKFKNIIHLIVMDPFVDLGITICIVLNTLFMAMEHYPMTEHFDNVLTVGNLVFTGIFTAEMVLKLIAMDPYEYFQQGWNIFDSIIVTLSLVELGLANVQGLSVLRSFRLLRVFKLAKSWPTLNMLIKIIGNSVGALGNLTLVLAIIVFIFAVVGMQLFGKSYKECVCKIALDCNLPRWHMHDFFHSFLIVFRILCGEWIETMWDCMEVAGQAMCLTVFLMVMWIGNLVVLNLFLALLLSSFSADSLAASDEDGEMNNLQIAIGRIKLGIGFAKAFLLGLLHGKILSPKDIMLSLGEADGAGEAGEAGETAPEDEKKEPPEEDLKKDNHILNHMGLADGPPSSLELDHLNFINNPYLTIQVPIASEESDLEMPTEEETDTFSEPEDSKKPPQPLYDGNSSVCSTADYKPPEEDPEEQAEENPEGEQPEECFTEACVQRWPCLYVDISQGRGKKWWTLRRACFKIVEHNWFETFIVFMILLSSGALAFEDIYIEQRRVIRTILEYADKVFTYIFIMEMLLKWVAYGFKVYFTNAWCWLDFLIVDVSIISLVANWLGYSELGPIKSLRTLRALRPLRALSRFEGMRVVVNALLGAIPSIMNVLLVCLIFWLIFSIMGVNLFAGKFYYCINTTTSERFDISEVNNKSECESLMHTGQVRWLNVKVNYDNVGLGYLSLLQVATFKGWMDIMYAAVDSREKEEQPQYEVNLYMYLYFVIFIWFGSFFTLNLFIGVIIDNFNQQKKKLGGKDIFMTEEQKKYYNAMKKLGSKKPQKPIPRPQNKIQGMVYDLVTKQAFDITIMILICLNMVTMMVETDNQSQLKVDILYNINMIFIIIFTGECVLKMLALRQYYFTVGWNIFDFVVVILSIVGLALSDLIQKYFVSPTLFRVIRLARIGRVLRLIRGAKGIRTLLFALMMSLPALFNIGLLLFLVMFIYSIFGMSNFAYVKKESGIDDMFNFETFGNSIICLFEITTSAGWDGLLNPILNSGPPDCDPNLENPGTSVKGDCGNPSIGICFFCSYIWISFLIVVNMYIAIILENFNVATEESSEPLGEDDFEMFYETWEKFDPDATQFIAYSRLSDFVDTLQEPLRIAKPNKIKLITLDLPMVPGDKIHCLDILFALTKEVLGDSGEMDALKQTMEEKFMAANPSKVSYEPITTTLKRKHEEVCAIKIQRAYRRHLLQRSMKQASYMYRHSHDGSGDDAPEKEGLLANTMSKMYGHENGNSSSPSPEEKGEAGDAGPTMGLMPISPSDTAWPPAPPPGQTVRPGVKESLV
Sequence of Nav1.4 (Homo sapiens, UniProt P35499, F432W/I1280W/I1583W/V787W) (Q07699 19-218 partner): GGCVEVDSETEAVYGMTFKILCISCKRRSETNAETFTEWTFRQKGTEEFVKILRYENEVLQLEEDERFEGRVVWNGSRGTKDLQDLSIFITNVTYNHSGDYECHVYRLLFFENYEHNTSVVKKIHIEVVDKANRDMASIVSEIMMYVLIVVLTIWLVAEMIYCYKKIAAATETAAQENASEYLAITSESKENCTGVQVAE
Sequence of Nav1.4 (Homo sapiens, UniProt P35499, F1586A) (P35499 whole entry F1586A): as the sequence (P35499 whole entry F432W/V787W/I1280W/I1583W) above, with W432F, W787V, W1280I, W1583I, F1586A counted along it
Sequence of Nav1.4 (Homo sapiens, UniProt P35499, F1586A) (Q07699 19-218 partner): as the sequence (Q07699 19-218 partner) above
T1 sequence (P35499 whole entry): as the sequence (P35499 whole entry F432W/V787W/I1280W/I1583W) above, with W432F, W787V, W1280I, W1583I counted along it
T1 sequence (Q07699 19-218 partner): as the sequence (Q07699 19-218 partner) above

Turning to `C=C(C)[C@@H]1CCC(C)=C[C@H]1c1c(O)cc(CCCCC)cc1O` [Cannabidiol], the inhibition at 10 µM at Nav1.4 [1] (CHO-K1, read-out: % block at 10 μM) stood at 25.3%.
On to `O=C(NCC1CCCCN1)c1cc(OCC(F)(F)F)ccc1OCC(F)(F)F` (stereo not drawn) [flecainide], for which the inhibition at 350 µM was determined as 76.4% at Nav1.4 [2] (CHO-K1, read-out: % block at 350 μM) and 64.6% at Nav1.4 [3].
For `CCN(CC)CC(=O)Nc1c(C)cccc1C` [lidocaine], the figures for the inhibition at 1100 µM on Nav1.4 [2] (setting [5]), on Nav1.4 [1] (setting [5]) and on Nav1.4 [4] were 53.6%, 24.6% and 60.6%, respectively.

These data come from PMC8042605 (The Journal of General Physiology, 2021).
